# Laboratory results published in paper PMC12732675, “Catalytically Active Recombinant Cysteine Proteases of Haemonchus contortus: Their Ability to Degrade Host Blood Proteins and Modulate Coagulation” (International Journal of Molecular Sciences, 2025).
# How the values were obtained:
# [1] = molecular target: T1, mHcCP1c (Haemonchus contortus, UniProt A0A7I4XTV4); assay: ovine fibrinogen degradation, SDS-PAGE; assay type: biochemical; conditions: 10 and 50 uM E-64, 15 min pre-incubation, PBS pH 7.4, 37 °C, 16 h; irreversible, covalent
# T1 construct: native signal peptide replaced by CD5 signal; C-terminal His tag; secreted from FreeStyle 293-F cells; Ni-NTA purified
# [2] = molecular target: T2, mHcCBP1 (Haemonchus contortus, UniProt A0A7I4Z8W6); assay: ovine fibrinogen degradation, SDS-PAGE; assay type: biochemical; conditions: 10 and 50 uM E-64, 15 min pre-incubation, PBS pH 7.4, 37 °C, 16 h; irreversible, covalent
# T2 construct: native signal peptide replaced by CD5 signal; C-terminal His tag; secreted from FreeStyle 293-F cells; Ni-NTA purified
# T2 sequence (A0A7I4Z8W6 entry or part of it): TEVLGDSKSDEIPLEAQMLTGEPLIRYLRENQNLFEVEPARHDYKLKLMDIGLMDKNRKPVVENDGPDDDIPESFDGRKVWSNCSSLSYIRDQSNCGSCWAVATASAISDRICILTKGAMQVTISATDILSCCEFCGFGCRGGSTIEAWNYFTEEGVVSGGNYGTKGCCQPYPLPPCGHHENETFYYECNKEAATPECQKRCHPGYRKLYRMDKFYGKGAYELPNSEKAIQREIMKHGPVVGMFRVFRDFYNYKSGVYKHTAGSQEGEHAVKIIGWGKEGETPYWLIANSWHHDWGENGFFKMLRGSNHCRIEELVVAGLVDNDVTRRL
# T1 sequence (A0A7I4XTV4 entry or part of it): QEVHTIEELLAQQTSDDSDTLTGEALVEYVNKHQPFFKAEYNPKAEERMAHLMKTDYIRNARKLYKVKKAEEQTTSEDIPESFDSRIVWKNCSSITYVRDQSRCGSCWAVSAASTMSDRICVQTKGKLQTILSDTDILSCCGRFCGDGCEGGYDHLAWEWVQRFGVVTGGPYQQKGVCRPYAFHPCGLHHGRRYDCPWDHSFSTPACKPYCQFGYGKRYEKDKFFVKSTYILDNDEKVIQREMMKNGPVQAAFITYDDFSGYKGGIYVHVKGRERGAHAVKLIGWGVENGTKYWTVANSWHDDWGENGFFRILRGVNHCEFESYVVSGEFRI
structure (smiles),measurement,setting,value
"CC(C)C[C@H](NC(=O)[C@H]1O[C@@H]1C(=O)O)C(=O)NCCCCN=C(N)N [E-64, L-trans-epoxysuccinyl-leucyl-amido (4-guanidino) butane]","ovine fibrinogen degradation, SDS-PAGE",[1],"ablation of the fibrinogenolytic activities of mHcCBP1, mHcCP1c (Figure 7A)"
same,"ovine fibrinogen degradation, SDS-PAGE",[2],"ablation of the fibrinogenolytic activities of mHcCBP1, mHcCP1c (Figure 7A)"
